Biological target: LRRK2(G2019S mutation, GST-LRRK2(amino acids 970-2527)) (Homo sapiens (Human), UniProt Q5S007, G2019S)
Assay: LRRK2 Km ATP LanthaScreen Assay
Format: biochemical
Details: Km ATP (184 μM ATP solution), G2019S LRRK2, mean IC50
Description: Unless otherwise noted, all LRRK2 IC50 data presented in tables refers to the LRRK2 Km ATP LanthaScreen™ Assay that is described in the Biological Assay section.
The data presented for the 5 mM and Km ATP LanthaScreen™ Assay represents mean IC50 values based on several test results and may have reasonable. deviations depending on the specific conditions and reagents used. Reagents for the LRRK2 5 mM and Km ATP LanthaScreen™ Assay were purchased from Life Technologies Corporation.
LRRK2 Km ATP LanthaScreen™ Assay
a) 400 nl of a 1:2.15 serial dilution of test compound(98 μM top assay concentration) is spotted via Labcyte Echo to certain wells in a 384 well black, untreated plate. Control wells contain 400 nl of either DMSO or 400 nl of a known inhibitor in DMSO.
b) 10 μl of a 2.5 nM LRRK2(G2019S mutation, GST-LRRK2(amino acids 970-2527)) enzyme solution in 1× assay buffer(50 mM Tris pH 8.5, 10 mM MgCl2, 0.01% Brij-35, 1 mM EGTA, 2 mM DTT, 0.05 mM NaVO4) is added to all wells.
c) A 30 minute room temperature incubation is followed by addition of 10 μl of 800 nM fluorescein labeled LRRKtide peptide substrate and 184 μM ATP solution in 1× assay buffer to all wells.
d) After a 60 minute room temperature incubation, 20 μl of TR-FRET Dilution Buffer(Invitrogen PV3756B) containing 4 nM Tb-labeled anti-phospho LRRKtide antibody and 20 mM EDTA is added to all wells.
e) Plates are incubated at room temperature for 1 hour and read on an Envision™ multi-mode plate reader with LanthaScreen™ settings. Results are analysed using Assay Data Analyzer.

Sequence of LRRK2(G2019S mutation, GST-LRRK2(amino acids 970-2527)) (Q5S007 970-2527 G2019S): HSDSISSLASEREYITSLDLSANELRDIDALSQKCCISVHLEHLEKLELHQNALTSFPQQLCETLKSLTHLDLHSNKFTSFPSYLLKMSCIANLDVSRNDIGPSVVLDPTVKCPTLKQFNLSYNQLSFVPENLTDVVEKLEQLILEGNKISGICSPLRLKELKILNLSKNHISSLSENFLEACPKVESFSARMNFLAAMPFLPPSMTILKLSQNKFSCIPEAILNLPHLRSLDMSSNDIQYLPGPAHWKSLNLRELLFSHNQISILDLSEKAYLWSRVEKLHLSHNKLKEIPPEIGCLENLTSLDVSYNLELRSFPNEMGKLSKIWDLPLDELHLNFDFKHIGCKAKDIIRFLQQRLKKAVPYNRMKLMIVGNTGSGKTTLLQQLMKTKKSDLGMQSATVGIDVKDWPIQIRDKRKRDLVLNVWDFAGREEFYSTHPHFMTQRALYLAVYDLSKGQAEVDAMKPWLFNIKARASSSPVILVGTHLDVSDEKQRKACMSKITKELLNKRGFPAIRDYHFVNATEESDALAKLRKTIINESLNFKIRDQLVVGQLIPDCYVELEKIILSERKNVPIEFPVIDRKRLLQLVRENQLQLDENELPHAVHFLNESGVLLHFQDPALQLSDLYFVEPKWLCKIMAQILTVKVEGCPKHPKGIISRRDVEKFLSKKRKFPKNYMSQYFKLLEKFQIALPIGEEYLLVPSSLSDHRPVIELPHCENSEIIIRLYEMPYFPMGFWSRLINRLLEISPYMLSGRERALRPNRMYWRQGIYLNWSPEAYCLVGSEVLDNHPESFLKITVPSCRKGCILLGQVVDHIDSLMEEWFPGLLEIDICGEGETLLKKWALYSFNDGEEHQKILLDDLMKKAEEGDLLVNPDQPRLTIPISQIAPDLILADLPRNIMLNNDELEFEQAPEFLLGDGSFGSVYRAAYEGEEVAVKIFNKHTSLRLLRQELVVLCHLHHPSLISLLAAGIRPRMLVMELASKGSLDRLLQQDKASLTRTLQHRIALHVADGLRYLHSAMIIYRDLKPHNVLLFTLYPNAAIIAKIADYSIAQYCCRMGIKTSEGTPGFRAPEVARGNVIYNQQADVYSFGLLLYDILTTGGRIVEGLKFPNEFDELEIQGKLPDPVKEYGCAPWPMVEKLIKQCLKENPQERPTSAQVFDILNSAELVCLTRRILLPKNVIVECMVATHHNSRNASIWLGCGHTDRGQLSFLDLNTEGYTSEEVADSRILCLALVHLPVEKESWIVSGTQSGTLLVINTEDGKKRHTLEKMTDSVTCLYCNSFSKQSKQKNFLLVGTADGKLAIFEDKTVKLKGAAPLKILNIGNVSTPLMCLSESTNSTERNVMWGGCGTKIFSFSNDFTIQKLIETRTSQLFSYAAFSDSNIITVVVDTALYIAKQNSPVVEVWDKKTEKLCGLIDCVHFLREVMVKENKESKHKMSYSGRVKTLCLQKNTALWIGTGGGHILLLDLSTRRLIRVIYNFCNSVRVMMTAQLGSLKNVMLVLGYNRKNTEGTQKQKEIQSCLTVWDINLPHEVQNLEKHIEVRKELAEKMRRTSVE

SMILES | IC50 [nM]
CC(C)Oc1cc2c(-c3cc(N4C[C@H](O)[C@@H](O)[C@@H]4C)ncn3)n[nH]c2cc1F [Example D57] | 15.5
CC(C)Oc1cc2c(-c3cc(N4CC[C@@H](N)C4)ncn3)n[nH]c2cc1F [Example D58] | 7.3
CC(C)Oc1cc2c(-c3cc(N4CC[C@H](N)C4)ncn3)n[nH]c2cc1F [Example D59] | 10.4
CC(C)Oc1cc2c(-c3cc(N4C[C@H](N)C[C@@H]4C)ncn3)n[nH]c2cc1F [Example D60] | 7.6
CC(C)Oc1cc2c(-c3cc(N4C[C@H](O)[C@@H](N)[C@@H]4C)ncn3)n[nH]c2cc1F [Example D61] | 11.7
CC(C)Oc1cc2c(-c3cc(N4CCN(CCO)CC4)ncn3)n[nH]c2cc1F [Example D62] | 1.65
CC(C)Oc1cc2c(-c3cc(N4CCN(S(=O)(=O)C5CC5)CC4)ncn3)n[nH]c2cc1F [Example D63] | 4.17
CCC(=O)N1CCN(c2cc(-c3n[nH]c4cc(F)c(OC(C)C)cc34)ncn2)CC1 [Example D64] | 4.32
CC(C)Oc1cc2c(-c3cc(N4CCN(C(=O)C5CC5)CC4)ncn3)n[nH]c2cc1F [Example D65] | 2.98
CCCN1CCN(c2cc(-c3n[nH]c4cc(F)c(OC(C)C)cc34)ncn2)CC1=O [Example D66] | 2.77
COCCOC1CCN(c2cc(-c3n[nH]c4cc(F)c(OC(C)C)cc34)ncn2)CC1 [Example D67] | 2.1
CCS(=O)(=O)N1CCN(c2cc(-c3n[nH]c4cc(F)c(OC(C)C)cc34)ncn2)CC1 [Example D68] | 2.24
CC(C)Oc1cc2c(-c3cc(N4CCN(C(C)C)C(=O)C4)ncn3)n[nH]c2cc1F [Example D69] | 3.09
CC(C)Oc1cc2c(-c3cc(N4CCN(C)C(=O)C4)ncn3)n[nH]c2cc1F [Example D70] | 2.19
COCCN1CCN(c2cc(-c3n[nH]c4cc(F)c(OC(C)C)cc34)ncn2)CC1=O [Example D71] | 1.63
CC(C)Oc1cc2c(-c3cc(N4C[C@@H](C)N(C)[C@@H](C)C4)ncn3)n[nH]c2cc1F [Example D72] | 1.33
COc1ccc2[nH]nc(-c3cc(N4C[C@H](F)[C@@H](F)C4)ncn3)c2c1 [Example E2] | 68.6
COc1ccc2[nH]nc(-c3cc(N4C[C@@H](C)O[C@@H](C)C4)ncn3)c2c1 [Example E3] | 29.3
COc1ccc2[nH]nc(-c3cc(N4CCN(S(C)(=O)=O)CC4)ncn3)c2c1 [Example E4] | 35.4
COc1ccc2[nH]nc(-c3cc(N4CCN(C(C)=O)CC4)ncn3)c2c1 [Example E5] | 74.5
COc1ccc2[nH]nc(-c3cc(N4CC5CCC(C4)O5)ncn3)c2c1 [Example E6] | 148
COc1ccc2[nH]nc(-c3cc(N4CCN(C)CC4)ncn3)c2c1 [Example E7] | 28.2
CCN1CCN(c2cc(-c3n[nH]c4ccc(OC)cc34)ncn2)CC1 [Example E8] | 24.3
COc1ccc2[nH]nc(-c3cc(N4CCN(C5CC5)CC4)ncn3)c2c1 [Example E9] | 25.9
COc1ccc2[nH]nc(-c3cc(N4CCNC(=O)C4)ncn3)c2c1 [Example E10] | 101

SMILES | IC50 [nM]
CCN1CCN(c2cc(-c3n[nH]c4ccc(OC)cc34)ncn2)CC1=O [Example E11] | 78.3
COc1ccc2[nH]nc(-c3cc(N4CCO[C@H](C)C4)ncn3)c2c1 [Example E12] | 28.5
COc1ccc2[nH]nc(-c3cc(N4CCO[C@@H](C)C4)ncn3)c2c1 [Example E13] | 76.9
CCOc1ccc2[nH]nc(-c3cc(N4CCN(S(C)(=O)=O)CC4)ncn3)c2c1 [Example F1] | 15.4
CCOc1ccc2[nH]nc(-c3cc(N4C[C@@H](C)O[C@@H](C)C4)ncn3)c2c1 [Example F2] | 12.8
CCOc1ccc2[nH]nc(-c3cc(N4C[C@H](F)[C@@H](F)C4)ncn3)c2c1 [Example F3] | 26.6
CCOc1ccc2[nH]nc(-c3cc(N4CCN(C)CC4)ncn3)c2c1 [Example F4] | 26.9
CCOc1ccc2[nH]nc(-c3cc(N4CCN(C5CC5)CC4)ncn3)c2c1 [Example F5] | 16.7
CCOc1ccc2[nH]nc(-c3cc(N4CCNC(=O)C4)ncn3)c2c1 [Example F6] | 63.9
CCOc1ccc2[nH]nc(-c3cc(N4CCN(C)C(=O)C4)ncn3)c2c1 [Example F7] | 37.1
CCOc1ccc2[nH]nc(-c3cc(N4CCN(CC)CC4)ncn3)c2c1 [Example F8] | 12.6
CCOc1ccc2[nH]nc(-c3cc(N4CCN(CC)C(=O)C4)ncn3)c2c1 [Example F9] | 16.7
CCOc1ccc2[nH]nc(-c3cc(N4CC5CCC(C4)O5)ncn3)c2c1 [Example F10] | 32.7
CCOc1ccc2[nH]nc(-c3cc(N4CCN(C(C)=O)CC4)ncn3)c2c1 [Example F11] | 18
CCOc1ccc2[nH]nc(-c3cc(N4CCO[C@H](C)C4)ncn3)c2c1 [Example F12] | 10.5
CCOc1ccc2[nH]nc(-c3cc(N4CCO[C@@H](C)C4)ncn3)c2c1 [Example F13] | 41.2
COCCOc1ccc2[nH]nc(-c3cc(N4CCN(S(C)(=O)=O)CC4)ncn3)c2c1 [Example G1] | 64.7
COCCOc1ccc2[nH]nc(-c3cc(N4C[C@@H](C)O[C@@H](C)C4)ncn3)c2c1 [Example G2] | 76.6
COCCOc1ccc2[nH]nc(-c3cc(N4C[C@H](F)[C@@H](F)C4)ncn3)c2c1 [Example G3] | 138
COCCOc1ccc2[nH]nc(-c3cc(N4CCN(C)CC4)ncn3)c2c1 [Example G4] | 67.2
COCCOc1ccc2[nH]nc(-c3cc(N4CCN(C5CC5)CC4)ncn3)c2c1 [Example G5] | 97
COCCOc1ccc2[nH]nc(-c3cc(N4CCNC(=O)C4)ncn3)c2c1 [Example G6] | 136
COCCOc1ccc2[nH]nc(-c3cc(N4CCN(C)C(=O)C4)ncn3)c2c1 [Example G7] | 69
CCN1CCN(c2cc(-c3n[nH]c4ccc(OCCOC)cc34)ncn2)CC1 [Example G8] | 97
CCN1CCN(c2cc(-c3n[nH]c4ccc(OCCOC)cc34)ncn2)CC1=O [Example G9] | 107

SMILES | IC50 [nM]
COCCOc1ccc2[nH]nc(-c3cc(N4CCO[C@H](C)C4)ncn3)c2c1 [Example G10] | 42.8
COCCOc1ccc2[nH]nc(-c3cc(N4CCO[C@@H](C)C4)ncn3)c2c1 [Example G11] | 101
COCCOc1ccc2[nH]nc(-c3cc(N4CC5CCC(C4)O5)ncn3)c2c1 [Example G12] | 154
COCCOc1ccc2[nH]nc(-c3cc(N4CCN(C(C)=O)CC4)ncn3)c2c1 [Example G13] | 128
COC[C@@H](C)Oc1ccc2[nH]nc(-c3cc(N4CCOCC4)ncn3)c2c1 [Example H1] | 56.2
COC[C@@H](C)Oc1ccc2[nH]nc(-c3cc(N4C[C@@H](C)O[C@@H](C)C4)ncn3)c2c1 [Example H2] | 39.1
COC[C@@H](C)Oc1ccc2[nH]nc(-c3cc(N4CCO[C@H](C)C4)ncn3)c2c1 [Example H3] | 35.5
COC[C@H](C)Oc1ccc2[nH]nc(-c3cc(N4C[C@@H](C)O[C@@H](C)C4)ncn3)c2c1 [Example H5] | 1.7
COC[C@H](C)Oc1ccc2[nH]nc(-c3cc(N4CCN(S(C)(=O)=O)CC4)ncn3)c2c1 [Example H6] | 4.5
COC[C@H](C)Oc1ccc2[nH]nc(-c3cc(N4CCN(C)CC4)ncn3)c2c1 [Example H7] | 2.08
COC[C@H](C)Oc1ccc2[nH]nc(-c3cc(N4CC5CCC(C4)O5)ncn3)c2c1 [Example H8] | 9.93
COC[C@H](C)Oc1ccc2[nH]nc(-c3cc(N4CCC5(CCC(=O)N5)CC4)ncn3)c2c1 [Example H9] | 4.36
COC[C@H](C)Oc1ccc2[nH]nc(-c3cc(N4CCC5(CC4)CC(=O)N(C)C5)ncn3)c2c1 [Example H10] | 2.87
COC[C@H](C)Oc1ccc2[nH]nc(-c3cc(N4CCC5(CC4)CNC(=O)C5)ncn3)c2c1 [Example H11] | 2.85
COC[C@H](C)Oc1ccc2[nH]nc(-c3cc(N4CC[C@@H](OC)C4)ncn3)c2c1 [Example H12] | 4.8
COC[C@H](C)Oc1ccc2[nH]nc(-c3cc(N4CC[C@H](OC)C4)ncn3)c2c1 [Example H13] | 5.27
COC[C@H](C)Oc1ccc2[nH]nc(-c3cc(N4CCC5(CCCO5)CC4)ncn3)c2c1 [Example H14] | 2.02
COC[C@H](C)Oc1ccc2[nH]nc(-c3cc(N4CCC5(CCN(C)C5=O)CC4)ncn3)c2c1 [Example H15] | 3.71
COC[C@H](C)Oc1ccc2[nH]nc(-c3cc(N4CCC5(CCNC5=O)CC4)ncn3)c2c1 [Example H16] | 2.83
COC[C@H](C)Oc1ccc2[nH]nc(-c3cc(N4CCO[C@H](C)C4)ncn3)c2c1 [Example H17] | 2.79
c1cnc(-c2ccc3[nH]nc(-c4cc(N5CCOCC5)ncn4)c3c2)cn1 [Example I1] | 34.7
CS(=O)(=O)N1CCN(c2cc(-c3n[nH]c4ccc(-c5cnccn5)cc34)ncn2)CC1 [Example I2] | 19.2
CC(C)Oc1ccc2[nH]nc(-c3cc(N4CCC(O)CC4)ncn3)c2c1 [Example J1] | 5.9
